One may read the IC50 as the concentration needed to halve the response being measured. Low readings indicate higher potency, high ones lower potency. A word on the solubility: it is the concentration that dissolves in the medium under given conditions. Low values mean little dissolved substance, high ones much dissolved substance.

The subject of data set [1] is TT medullary thyroid carcinoma cells, harboring a mutated RET-C634W receptor. The data set is described as follows: In Vitro Cell Proliferation Assay (TT). The format is cell-based. As to conditions: Homo sapiens; 144 hours exposure, CellTiterGlo. The method, then:
(§1) In Vitro Cell Proliferation Assay
(§2) To evaluate the antiproliferative activity of a compound of formula (I) the following human cell lines were used: A2780 ovarian and MCF-7 breast carcinoma; TT and MZ-CRC-1 medullary thyroid carcinoma, harboring a mutated RET-C634W and RET-M918T receptor respectively, LC-2/ad Non Small Cell Lung Carcinoma, expressing the CCDC6-RET fusion gene product. Exponentially growing cells were seeded and incubated at 37° C. in a humidified 5% C02 atmosphere using appropriate medium supplemented with 10% Fetal Bovine Serum. 24 hours following cell plating, scalar doses of the compounds dissolved in 0.1% DMSO were added to the medium and cells were exposed to drugs for either 72 hours (MCF-7 and A2780) or 144 hours (TT, MZ-CRC-1 and LC-2/ad), according to their different proliferation rate. At the end of treatment, cell proliferation was determined by an intracellular ATP monitoring system (CellTiterGlo—Promega), following manufacturer's instructions, and using an Envision instrument (PerkinElmer) as reader. Data obtained from compound versus vehicle treated cells were compared using Assay Explorer (Symyx Technologies Inc) software. IC50 values were calculated using sigmoidal interpolation curve fitting.
On the technique in general: Cellular ATP, detected with luciferase, serves as a proxy for viable cell number.

The nature of data set [2]: High-Throughput Solubility Assay. Format: physicochemical. Particulars: kinetic from dmso stock; pH 7, aqueous potassium phosphate buffer, nominal 200 μM, 24 h at room temperature. How it is done:
High-Throughput Solubility Assay
A nominal 200 μM suspensions/solutions of a compound of formula (I) in aqueous potassium phosphate buffer at pH=7 and aqueous citric acid buffer at pH=3 were prepared on a “Multiscreen-HTS”, 0.2 μm filter plate (Millipore, Billerica, Mass.). These solutions were stirred for 10 min and stored for 24 h at room temperature to pre-saturate the membrane filter and to reach a “pseudo-thermodynamic solubility”. Then the plate was put on a 500 μL 96 multiwell plate containing 200 μL of acetonitrile in each well and centrifuged at 2000 rpm for 5 minutes. The so obtained solutions were then analyzed simultaneously by HPLC-UV with standard solutions for quantification.

Data set [3] relates to A2780 ovarian carcinoma cells. The data set is described as follows: In Vitro Cell Proliferation Assay (A2780). The format is cell-based. As to conditions: Homo sapiens, 72 hours exposure, CellTiterGlo. How it is done: as §1, §2
Data set [4] relates to MCF-7 breast carcinoma cells. Put plainly: In Vitro Cell Proliferation Assay (MCF-7). As to conditions: Homo sapiens, MCF7; 72 hours exposure, CellTiterGlo. The format is cell-based. How it is done: as §1, §2
For data set [5], the system named is LC-2/ad Non Small Cell Lung Carcinoma cells, expressing the CCDC6-RET fusion gene product. Put plainly: In Vitro Cell Proliferation Assay (LC-2/ad). The format is cell-based. As to conditions: Homo sapiens, 144 hours exposure, CellTiterGlo. How it is done: as §1, §2
In data set [6] the test system is MZ-CRC-1 medullary thyroid carcinoma cells, harboring a mutated RET-M918T receptor. Put plainly: In Vitro Cell Proliferation Assay (MZ-CRC-1). The format is cell-based. Particulars: Homo sapiens, 144 hours exposure, CellTiterGlo. How it is done: as §1, §2

Converted amounts (≈) assume the structure as drawn.

Regarding `CCN1CCN(Cc2ccc(NC(=O)Cc3cccc(C#Cc4cnc(N)nc4-c4cc5c(n4C)CCNC5=O)c3)cc2C(F)(F)F)CC1` [Cmpd 77, 2-{3-[2-Amino-4-(1-methyl-4-oxo-4,5,6,7-tetrahydro-1H-pyrrolo[3,2-c]pyridin-2-yl)-pyrimidin-5-ylethynyl]-phenyl}-N-[4-(4-ethyl-piperazin-1-ylmethyl)-3-trifluoromethyl-phenyl]-acetamide], the IC50 is 0.002 µM in data set [1]; 2820 nM in data set [3]; 6650 nM in data set [4]; 0.003 µM in data set [5]; 0.023 µM in data set [6]. For the same molecule, the solubility at 24 h in data set [2] came to 23 µM (≈ 15.4 µg/mL).

On to `CCN1CCN(Cc2ccc(NC(=O)Cc3cccc(C#Cc4cnc(NC)nc4-c4cc5c(n4C)CCNC5=O)c3)cc2C(F)(F)F)CC1` [Cmpd 78, N-[4-(4-Ethyl-piperazin-1-ylmethyl)-3-trifluoromethyl-phenyl]-2-{3-[2-methylamino-4-(1-methyl-4-oxo-4,5,6,7-tetrahydro-1H-pyrrolo[3,2-c]pyridin-2-yl)-pyrimidin-5-ylethynyl]-phenyl}-acetamide], for which the IC50 in data set [1] is 0.007 µM; in data set [3] it was 2220 nM; in data set [4], 2310 nM; in data set [5], 0.014 µM; in data set [6] it was 0.026 µM. Further, in data set [2], the solubility at 24 h was 1.4 µM (≈ 0.959 µg/mL).

Values taken from patent US9604980B2, “Substituted pyrimidinyl and pyridinyl-pyrrolopyridinones, process for their preparation and their use as kinase inhibitors” (NERVIANO MEDICAL SCIENCES S.r.l, priority 2012, dated 2017).
